Source: the NIST ThermoML archive (doi:10.1016/j.fluid.2013.09.030)
Numbers after ± are expanded uncertainties.

Tests used:
[1] = Liquid; for mass density: 298.15 K, 101.33 kPa, Vibrating tube method; for vapor or sublimation pressure: Ebulliometric method (Recirculating still)
[2] = refractive index (Na D-line) (dimensionless); conditions: 298.15 K; 101.33 kPa; Liquid; Standard Abbe refractometry
[3] = Boiling temperature at pressure P; conditions: Liquid, Ebulliometric method (Recirculating still)
[4] = xn = mol fraction of the nth substance listed; conditions: 298.15 K, 101 kPa, Liquid, Vibrating tube method
[5] = refractive index (Na D-line) (dimensionless); xn = mol fraction of the nth substance listed; conditions: 298.15 K, 101 kPa, Liquid, Standard Abbe refractometry

COC(=O)OC [dimethyl carbonate]
Conditions | mass density [kg/m3] | refractive index
[1] | 1063.26 ± 0.06 | –
[2] | – | 1.3666 ± 0.0004

Conditions | vapor or sublimation pressure [kPa]
[1], 363.25 K | 101.3 ± 0.3

CO [methanol]
Conditions | mass density [kg/m3] | refractive index
[1] | 786.69 ± 0.12 | –
[2] | – | 1.3267 ± 0.0004

Conditions | vapor or sublimation pressure [kPa]
[1], 338.12 K | 101.3 ± 0.3

COC(=O)Oc1ccccc1 [methyl phenyl carbonate]
[3]
Conditions | Boiling temperature at pressure P [°C]
3 kPa | 105.66 ± 1.8
5 kPa | 118.02 ± 1.2
10 kPa | 136.72 ± 0.86
15 kPa | 148.41 ± 0.58
20 kPa | 157.08 ± 0.45
25 kPa | 164.10 ± 0.37
30 kPa | 170.01 ± 0.31
35 kPa | 174.97 ± 0.27
40 kPa | 179.58 ± 0.25
45 kPa | 183.76 ± 0.23
50 kPa | 187.52 ± 0.21
55 kPa | 190.94 ± 0.19
60 kPa | 194.06 ± 0.18
65 kPa | 197.11 ± 0.17
70 kPa | 199.87 ± 0.15
75 kPa | 202.31 ± 0.15
80 kPa | 204.76 ± 0.15
85 kPa | 207.20 ± 0.14
90 kPa | 209.54 ± 0.14
95 kPa | 211.70 ± 0.12
100 kPa | 213.56 ± 0.12
101.3 kPa | 214.33 ± 0.14
102.1 kPa | 214.51 ± 0.08

Conditions | mass density [kg/m3] | refractive index
[1] | 1143.63 ± 0.15 | –
[2] | – | 1.4948 ± 0.0004

COC(=O)Oc1ccccc1 [methyl phenyl carbonate] + CO
Conditions | mass density, [4] [kg/m3] | refractive index, [5]
x1 = 0.0501 | 842.07 ± 0.2 | 1.3647 ± 0.0004
x1 = 0.1001 | 886.48 ± 0.17 | 1.3885 ± 0.0004
x1 = 0.2002 | 953.27 ± 0.13 | 1.4283 ± 0.0004
x1 = 0.3002 | 1000.92 ± 0.09 | 1.45 ± 0.0004
x1 = 0.4003 | 1036.71 ± 0.09 | 1.467 ± 0.0004
x1 = 0.5 | 1064.49 ± 0.09 | 1.4748 ± 0.0004
x1 = 0.6013 | 1087.16 ± 0.1 | 1.4801 ± 0.0004
x1 = 0.7008 | 1105.28 ± 0.11 | 1.4848 ± 0.0004
x1 = 0.8003 | 1120.25 ± 0.12 | 1.4877 ± 0.0004
x1 = 0.9015 | 1133.12 ± 0.13 | 1.4915 ± 0.0004
x1 = 0.9471 | 1138.14 ± 0.14 | 1.4929 ± 0.0004

COC(=O)Oc1ccccc1 [methyl phenyl carbonate] + COC(=O)OC
Conditions | mass density, [4] [kg/m3] | refractive index, [5]
x1 = 0.0499 | 1069.88 ± 0.07 | 1.3764 ± 0.0004
x1 = 0.1 | 1076.1 ± 0.07 | 1.3863 ± 0.0004
x1 = 0.2001 | 1087.37 ± 0.08 | 1.4038 ± 0.0004
x1 = 0.2999 | 1097.32 ± 0.08 | 1.419 ± 0.0004
x1 = 0.4 | 1106.17 ± 0.09 | 1.4336 ± 0.0004
x1 = 0.5002 | 1114.08 ± 0.09 | 1.4463 ± 0.0004
x1 = 0.6 | 1121.17 ± 0.1 | 1.4575 ± 0.0004
x1 = 0.7007 | 1127.6 ± 0.11 | 1.468 ± 0.0004
x1 = 0.8003 | 1133.42 ± 0.12 | 1.4774 ± 0.0004
x1 = 0.8991 | 1138.71 ± 0.13 | 1.4853 ± 0.0004
x1 = 0.9493 | 1141.22 ± 0.14 | 1.4901 ± 0.0004
